“And” between values parts separate entries of the source, which are not always exact repeats. Equal values may be shown once. Read-outs that look alike come from different tables or passages of the source.
Legend:
[1] = target: T1, human DNA polymerase β (Homo sapiens, UniProt P06746); experiment: Human DNA polymerase inhibition assay, β; assay type: biochemical
T1 construct: purchased CHIMERx (Madison, WI)
Experimental: The polymerases were purchased from CHIMERx (Madison, WI). Inhibition of DNA polymerase α activity was assayed in microtiter plates in 20 mM Tris-HCl, pH 8, 5 mM Mg acetate, 0.3 mg/mL BSA, 1mM DTT, 0.1 mM spermine, 0.05 mM dCTP, dTTP and dATP, 10 μCi ^32P-α-dGTP (800 Ci/mmol), 20 μg activated calf thymus DNA and the test compound at indicated concentrations. The DNA polymerase β and γ reaction mixture contained 50 mM Tris-HCl, pH 8.7, KCl (10 mM for β and 100 mM for γ), 10 mM MgCl2, 0.4 mg/mL BSA, 1mM DTT, 15% glycerol, 0.05 mM dCTP, dTTP and dATP, 10 μCi ^32P-α-dGTP (800 Ci/mmol), 20 μg activated calf thymus DNA and test compound at the indicated concentrations. For each assay, samples were run in triplicate, and positive controls were included. The enzyme reactions were allowed to proceed for 30 min at 37 °C followed by transfer onto glass-fiber filter plates and subsequent precipitation with 10% trichloroacetic acid (TCA). Plates were washed five times with 5% TCA, once with 95% ethanol and dried. The radioactive content of each filter was measured and used to determine the extent of inhibition of each polymerase.

[2] = target: human mitochondrial RNA polymerase (POLRMT) (Homo sapiens, UniProt O00411); settings: nucleotide controls; cited from earlier work
human mitochondrial RNA polymerase (POLRMT), sequence (O00411 42-1230): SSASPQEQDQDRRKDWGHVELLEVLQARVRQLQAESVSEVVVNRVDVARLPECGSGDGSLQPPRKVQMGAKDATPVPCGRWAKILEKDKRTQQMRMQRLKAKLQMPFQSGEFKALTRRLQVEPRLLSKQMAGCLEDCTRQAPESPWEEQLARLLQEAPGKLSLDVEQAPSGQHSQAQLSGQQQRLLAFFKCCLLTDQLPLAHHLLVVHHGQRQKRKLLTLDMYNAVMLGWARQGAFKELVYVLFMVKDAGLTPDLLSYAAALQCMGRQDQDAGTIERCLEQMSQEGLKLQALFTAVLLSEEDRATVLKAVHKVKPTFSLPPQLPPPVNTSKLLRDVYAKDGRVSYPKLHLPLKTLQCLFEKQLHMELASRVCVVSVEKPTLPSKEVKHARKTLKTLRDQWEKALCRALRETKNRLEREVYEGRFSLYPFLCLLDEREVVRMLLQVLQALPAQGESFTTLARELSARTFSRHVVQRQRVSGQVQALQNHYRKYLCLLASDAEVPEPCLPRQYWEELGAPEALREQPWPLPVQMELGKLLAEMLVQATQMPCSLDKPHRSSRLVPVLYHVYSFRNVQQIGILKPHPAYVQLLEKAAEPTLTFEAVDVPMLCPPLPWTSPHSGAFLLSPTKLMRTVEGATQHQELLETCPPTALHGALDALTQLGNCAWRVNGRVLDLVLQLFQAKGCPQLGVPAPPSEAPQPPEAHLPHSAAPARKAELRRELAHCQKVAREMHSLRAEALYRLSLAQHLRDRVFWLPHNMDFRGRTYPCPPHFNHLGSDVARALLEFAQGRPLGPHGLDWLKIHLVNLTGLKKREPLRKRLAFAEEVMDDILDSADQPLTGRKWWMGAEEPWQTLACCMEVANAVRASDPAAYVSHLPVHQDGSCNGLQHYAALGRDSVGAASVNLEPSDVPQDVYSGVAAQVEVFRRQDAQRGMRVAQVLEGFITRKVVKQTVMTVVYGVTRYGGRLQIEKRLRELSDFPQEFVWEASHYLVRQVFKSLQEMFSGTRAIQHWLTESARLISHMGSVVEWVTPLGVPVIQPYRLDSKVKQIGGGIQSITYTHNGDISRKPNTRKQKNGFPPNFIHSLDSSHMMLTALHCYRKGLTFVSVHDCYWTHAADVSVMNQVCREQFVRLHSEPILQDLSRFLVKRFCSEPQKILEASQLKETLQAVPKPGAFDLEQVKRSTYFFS

[3] = system: HCV NS5B replicons, laboratory strains; experiment: PhenoSense HCV NS5B assay, laboratory strains; assay type: cell-based, hepatitis C virus
[4] = system: HCV NS5B replicons from clinical isolates; experiment: PhenoSense HCV NS5B assay, clinical isolates; assay type: cell-based, hepatitis C virus; settings: for EC50: Hepatitis C virus
[5] = system: HCV strains containing resistance-associated variants (RAVs); experiment: PhenoSense HCV NS5B assay, resistance-associated variants; assay type: cell-based, hepatitis C virus; settings: for EC50: Hepatitis C virus
[6] = system: Huh-luc/neo-ET cells; settings: XTT
[7] = system: HCV GT1b replicon; experiment: HCV GT1b replicon assay (Britelite luciferase reporter)
[8] = system: human iPS cardiomyocytes; assay type: cell-based; settings: 3 days
Experimental: Cardiomyocyte assay. […] Test or positive control compounds were then added in triplicate and the incubations continued for 3 days. Cell viability was measured by XTT and CellTiter Glo staining. For the latter method, the medium was removed from test plates, replaced with CellTiter Glo reagent in fresh medium before incubating at RT for 10 min. The well contents were transferred to a white 96-well plate and luminescence measured within 15 min on a Wallac 1450 Microbeta Trilux liquid scintillation counter.

[9] = system: HSV-1; experiment: Anti-HSV-1 assay (XTT); assay type: cell-based, herpes simplex virus type 1; settings: Human alphaherpesvirus 1; HSV-1 in Vero cells
Excerpt: Anti-Herpes Simplex Type 1 Virus (HSV-1).
Determination of antiviral activity and cytotoxicity.

[10] = system: Vero cells; experiment: XTT cytotoxicity, Vero cells; assay type: cell-based, African green monkey; settings: HSV-1 assay
[11] = individual assays, AT-511 batches 1-6, SOF in parallel

C[C@H](CCC(=O)O)[C@H]1CC[C@H]2[C@@H]3CC[C@@H]4C[C@H](O)CC[C@]4(C)[C@H]3CC[C@]12C [lithocholic acid, reference compound]
IC50 [1]: 2910 nM

Nc1nc2c(ncn2[C@@H]2O[C@H](COP(=O)(O)OP(=O)(O)OP(=O)(O)O)[C@@H](O)[C@H]2O)c(=O)[nH]1 [GTP]
kpol [2]: 21 ± 1 s⁻¹

CC(C)OC(=O)[C@H](C)N[P@](=O)(OC[C@H]1O[C@@H](n2ccc(=O)[nH]c2=O)[C@](C)(F)[C@@H]1O)Oc1ccccc1 [SOF, sofosbuvir]
EC95 ([3]; GT1a H77): 719 nM
EC95 ([3]; GT1b Con-1): 545 nM
EC50 ([3]; GT1b Con-1 (control reference)): 89.4 nM
EC95 ([3]; GT3a S52): 700 nM
EC50 ([3]; Hepatitis C virus, GT1A, GT1a H77): 83.4 nM
EC50 ([3]; Hepatitis C virus, GT1B, GT1b Con-1 (control reference)): 89 nM
EC50 ([3]; Hepatitis C virus, GT2A, GT2a JFH-1): 50.7 nM
EC50 ([3]; Hepatitis C virus, GT3A, GT3a S52): 117 nM
EC50 ([3]; Hepatitis C virus, GT4A, GT4a ED43): 158 nM
EC50 ([3]; Hepatitis C virus, GT5A, GT5a SA13): 287 nM
EC50 ([3]; Hepatitis C virus, read-out: range in EC50 values across genotypes, panel of six laboratory strains): 51 to 287 nM
fold range in EC50 values across genotypes ([3]; laboratory strains): 5.6 fold
EC50 ([4]; GT1A, clinical isolate GT1a): 62.7 nM
EC50 ([4]; GT1B, clinical isolate GT1b): 86 nM
EC50 ([4]; GT2A, clinical isolate GT2a): 22.5 nM
EC50 ([4]; GT2B, clinical isolate GT2b): 44.8 nM
EC50 ([4]; GT3A, clinical isolate GT3a-1): 126 nM
EC50 ([4]; GT3A, clinical isolate GT3a-2): 123 nM
EC50 ([4]; GT4A, clinical isolate GT4a): 74.9 nM
EC50 ([4]; clinical isolate GT4d): 93.7 nM
EC50 ([4]; read-out: range in EC50 values, eight clinical-isolate replicons): 23 to 126 nM
EC95 ([4]; clinical isolate GT1a): 508 nM
EC95 ([4]; clinical isolate GT1b): 642 nM
EC95 ([4]; clinical isolate GT2a): 195 nM
EC95 ([4]; clinical isolate GT2b): 295 nM
EC95 ([4]; clinical isolate GT3a-1): 690 nM
EC95 ([4]; clinical isolate GT3a-2): 808 nM
EC95 ([4]; clinical isolate GT4a): 681 nM
EC95 ([4]; clinical isolate GT4d): 1020 nM
fold range in EC50 values ([4]; clinical isolates): 5.5 fold
fold range in EC95 values ([4]; clinical isolates): 5.2 fold
EC95 ([5]; GT1a 2_C316N): 473 nM
EC95 ([5]; GT1a 2c1_L159F): 1068 nM
EC95 ([5]; GT1a 2c2_L159F_S282T): 16950 nM
EC95 ([5]; GT1a H77_C316N): 469 nM
EC95 ([5]; GT1a H77_S282T): 7230 nM
EC95 ([5]; GT1b Con-1_L159F): 715 nM
EC95 ([5]; GT1b Con-1_S282T): 7230 nM
EC95 ([5]; GT2b 2_L159F): 539 nM
EC50 ([5]; GT1A, GT1a 2_C316N): 73.9 nM
EC50 ([5]; GT1A, GT1a 2c1_L159F): 115 nM
EC50 ([5]; GT1A, GT1a 2c2_L159F_S282T): 1620 nM
EC50 ([5]; GT1A, GT1a H77_C316N): 57.2 nM
EC50 ([5]; GT1A, GT1a H77_S282T): 1400 nM
EC50 ([5]; GT1B, GT1b Con-1_L159F): 111 nM
EC50 ([5]; GT1B, GT1b Con-1_S282T): 950 nM
EC50 ([5]; GT2B, GT2b 2_L159F): 79.2 nM
shift in EC50 versus reference strain lacking S282T ([5]; strains with S282T): 15 fold
shift in EC95 versus reference strain lacking S282T ([5]; strains with S282T): 19 fold
toxicity to the replicon cells, none up to highest concentration tested [6]: > 1 µM
TC50 ([6]; individual assays): >1000 nM
EC50 ([7]; Hepatitis C virus, GT1B, read-out: EC50 range, range over all assays): 33 to 68 nM
EC50 ([7]; Hepatitis C virus, GT1B, read-out: mean EC50, mean (± SD) of all assays): 48 ± 10 nM
EC50 [7, 11]: 52.3 nM and 46.5 nM and 67.5 nM and 32.7 nM and 48.3 nM and 40.4 nM and 47.6 nM and 48.1 nM
EC95 [7, 11]: 360 nM and 231 nM and 387 nM and 197 nM and 247 nM and 198 nM and 275 nM and 263 nM
mean EC95 ([7]; mean (± SD) of all assays): 270 ± 70 nM and 270 nM
EC50 ([7]; read-out: EC50 range, range over all assays): 32.7 to 67.5 nM
EC50 ([7]; read-out: mean EC50, mean (± SD) of all assays): 47.9 nM

COc1cc2nc(N3CCN(C(=O)C4COc5ccccc5O4)CC3)nc(N)c2cc1OC (stereo not drawn) [doxazosin]
TC50 [8]: 18000 nM

Nc1nc2c(ncn2COCCO)c(=O)[nH]1 [Acyclovir]
EC50 [9]: 1760 nM
TC50 [10]: >100000 nM

From article PMC6949113, “Preclinical evaluation of AT-527, a novel guanosine nucleotide prodrug with potent, pan-genotypic activity against hepatitis C virus” (PLoS ONE, 2020)
